Laboratory results as given in patent publication US7528175B2, “Method of treating airway diseases with beta-adrenergic inverse agonists” (Inverseon, Inc., priority 2005, dated 2009).
“Also recorded” adds a separate entry of the source. Where two headings read alike, the source gives them in different places.

How the values were obtained:
asthmatic mice [1] = experiment: Airway resistance (Raw) response to methacholine in murine model of asthma (forced oscillation); assay type: in vivo, Balb/cJ mice; conditions: for airway hyperresponsiveness (Raw): chronic treatment 7 days, 20 mg/kg (metoprolol 3× daily s.c.; timolol in chow)
Description: Balb/cJ mice aged 6 weeks (Jackson Animal Laboratory, Bar Harbor, Me.) were housed under specific pathogen-free conditions and fed a chicken ovalbumin-free diet. The Animal Research Ethics Boards of both the University of Houston and the Baylor College of Medicine approved all experiments reported here. […] Mice were sensitized with subcutaneous injection of 25 μg of ovalbumin adsorbed to aluminum hydroxide on protocol days 2, 9, and 16. Subsequently, mice were given 50 μL of saline solution containing 25 μg of ovalbumin intranasally, on a daily basis, from protocol days 23 through 27. A group of ovalbumin-sensitized saline-challenged mice serves as controls for systemic sensitization and respiratory challenges with ovalbumin. Prior to intranasal administrations, mice were sedated with halothane vapor.
To examine the effects of duration of β-adrenergic ligand therapy on the phenotype of the murine model of asthma, the experimental drugs were administered either acutely or chronically to different groups of asthmatic mice.
Asthmatic mice on acute therapy were given a single intravenous bolus infusion of either β-adrenergic drug or normal saline on protocol day 28, 15 minutes before airway responsiveness to methacholine was determined. […] […] […] These concentrations were chosen based on those producing therapeutic effects in mice in previously published studies. The non-asthmatic mice were fed normal chow.
On protocol day 28, mice were anesthetized, tracheotomized, and connected to a computer-controlled small animal ventilator (Flexivent, Scientific Respiratory Equipment, Inc., Montreal, Canada). Airway resistance (Raw) was measured using the forced oscillation technique. The cellular composition of bronchoalveolar lavage fluid (BALF) was also determined.
To induce airway constriction, a solution containing 150 μg/mL of acetyl-α-methylcholine chloride (methacholine) (Sigma Chemical, St. Louis, Mo.) was infused intravenously at constant rates using a syringe infusion pump (Raze Scientific Instruments, Stanford, Conn.). […] Each methacholine dose was administered for 3 to 5 minutes, during which data were sampled at 1-minute intervals and then averaged.
The complex input impedance of the respiratory system was computed and the value of the real part of respiratory system impedance at 19.75 Hz was taken to reflect the magnitude of airway resistance (Raw). To examine the degree of airway responsiveness of each animal, the values for Raw as a function of methacholine doses were plotted. The largest value for Raw achieved in response to methacholine stimulation was referred to as Rawpeak. For mice that achieved a plateau in the methacholine dose-Raw response curve, the ED50 was calculated by linear interpolation using the GraphPad Prism4 (GraphPad Software, Inc.). […] The Bonferroni test was used to examine the statistical differences between experimental groups. The effects of acute drug treatments on baseline respiratory system mechanics were assessed using a two-tailed paired t-test. A value of P<0.05 was considered significant.
For these experiments, salbutamol was used for chronic administration at 0.5 mg/kg/day with a minipump and for acute administration at 0.15 mg/kg by i.v. bolus 15 minutes prior to challenge. Alprenolol was used at a high dose of 7200 ppm in chow or at a low dose of 720 ppm in chow. Carvedilol was used at a high dose of 2400 ppm in chow or at a low dose of 720 ppm in chow.

[2] = cited from earlier work
patients with CHF = conditions: cited from earlier work
[3] = tested on: antigen-induced bronchoconstriction; conditions: acute administration; cited from earlier work
asthmatic mice [4] = experiment: BALF cell number and type (Example 11); assay type: in vivo; conditions: vs nontreated asthmatic mice
Source text: The same mice as described in Example 1 underwent bronchoalveolar lavage (BAL) to determine the total number and type of immune system cells in the lung. BAL Fluid (BALF) was irrigated and collected from the lungs of mice as previously described (Evans K L, Bond R A, Corry […]. Frequency dependence of respiratory system mechanics during induced constriction in a murine model of asthma. J Appl Physiol. 2003 January;94(1):245-52). […] The number of neutrophils was increased in nontreated asthmatic mice compared to mice that served as controls for chronic beta-blocker treatments. In comparison to their notable effects on airway responsiveness, the β-AR ligands tested had very little effect on BALF cellularity. […] FIG. 12 has 3 panels of cell number and type of cells from the bronchoalveolar lavage fluid of asthmatic mice treated acutely or chronically with beta adrenergic ligands. Cells were identified as eosinophils (black bars), macrophages (hatched bars), neutrophils (grey bars), and lymphocytes (white bars) by standard morphologic criteria. At least 200 cells were counted per cytospin preparation, and the absolute number of each cell type was calculated based on the volume of fluid recovered from the lavage. […] Data are expressed as mean ±SEM and are representative of 6-25 animals per group. #P<0.05 compared to NTX, *P<0.05 compared to control (ANOVA).

[5] = tested on: tracheas from asthmatic mice; conditions: chronic treatment of asthmatic mice, excised tracheas; cited from earlier work
β2-adrenergic receptor [6] = assay type: binding, mice; conditions: 2 days of administration
Description: (§1) β2-adrenergic receptor numbers were measured in asthmatic mice as follows. […] Mice were sacrificed and lung membranes were isolated as follows. Frozen lung tissue was homogenized in an ice-cold buffer containing 0.32 M sucrose and 25 mM Tris (pH 7.4) using a polytron (Pro 200, Pro Scientific, Inc.). The homogenate was centrifuged at 1000×g for 10 min at 4° C. The resulting supernatant was centrifuged at 40,000×g for 20 min at 4° C. The pellet was suspended in an ice-cold 25 mM Tris-HCl buffer (pH 7.4) and centrifuged at 40,000×g for 20 min at 4° C. The final pellet was suspended in 200 μL of 25 mM Tris-HCl (pH 7.4); membrane protein concentration was determined by BCA protein assay kit. […] The incubation was done at 37° C. for 2 h and terminated by rapid vacuum filtration through glass fiber filters. The filters were washed three times with 250 μL of cold wash buffer (25 mM Tris-HCl, pH 7.4) and the radioactivity determined in a counter. […] Receptor densities are expressed as femtomoles of sites per milligram of protein. Bmax is determined by nonlinear regression of the saturation binding curves.

β2-adrenergic receptor [7] = target: β2-adrenergic receptor (Mus musculus, UniProt P18762); assay type: binding, mice; conditions: for Bmax: 15 Minutes drug treatment; for Bmax / βmax: lung membranes of asthmatic mice, mean±SEM; for βmax: 28 Days drug treatment; for level of the β2-adrenergic receptor: chronic treatment, asthmatic mice
β2-adrenergic receptor (Mus musculus, UniProt P18762), sequence (P18762 whole entry): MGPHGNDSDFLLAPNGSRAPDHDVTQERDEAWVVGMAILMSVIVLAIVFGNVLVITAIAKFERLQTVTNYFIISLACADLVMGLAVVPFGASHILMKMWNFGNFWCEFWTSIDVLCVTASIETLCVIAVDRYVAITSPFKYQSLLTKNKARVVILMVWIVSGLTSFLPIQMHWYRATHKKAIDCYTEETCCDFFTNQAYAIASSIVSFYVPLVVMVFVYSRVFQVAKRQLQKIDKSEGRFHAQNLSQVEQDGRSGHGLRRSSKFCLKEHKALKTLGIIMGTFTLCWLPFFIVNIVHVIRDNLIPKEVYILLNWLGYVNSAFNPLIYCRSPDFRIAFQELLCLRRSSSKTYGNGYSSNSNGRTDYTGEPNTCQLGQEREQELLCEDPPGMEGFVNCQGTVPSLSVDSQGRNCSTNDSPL
Description: as §1

[8] = chronic use; cited from earlier work
asthmatic mice [9] = experiment: Total number of immune cells in BALF (Example 12); assay type: in vivo; conditions: chronic treatment; compared to NS/NC mice
Description: Bronchial alveolar lavage fluid was collected from treated animals and total immune cell number was determined and the total number of eosinophils was also determined. Additionally, the interleukin 10 (IL-10) levels were determined in the mice.

β-adrenergic receptor = conditions: U.S. Pat. No. 6,284,800; cited from earlier work
[10] = asthmatic mice, acute: single intravenous bolus 15 minutes before methacholine
[11] = asthmatic mice, chronic administration for 28 days

SMILES: CC(C)(C)NC[C@H](O)COc1nsnc1N1CCOCC1 [timolol]
- airway hyperresponsiveness (Raw) (asthmatic mice [1]): effective in reducing airway hyperresponsiveness

SMILES: CC(C)(C)NCC(O)c1cc(O)cc(O)c1 (stereo not shown) [terbutaline]
- increase in bioavailability from oral component ([2]; from an MDI): 6.7%
- absorption through the lung ([2]; healthy smokers vs healthy nonsmokers): absorbed through the lung more rapidly in healthy smokers than in healthy nonsmokers

SMILES: CC(C)(Cc1c[nH]c2ccccc12)NCC(O)COc1ccccc1C#N (stereo not shown) [Bucindolol, bucindolol]
- clinical outcome in congestive heart failure (patients with CHF): failed to demonstrate any benefit over placebo

SMILES: CCCC1O[C@@H]2C[C@H]3[C@@H]4CCC5=CC(=O)C=C[C@]5(C)[C@H]4[C@@H](O)C[C@]3(C)[C@]2(C(=O)CO)O1 (stereo partly shown) [budesonide]
- plasma clearance relative to average clearance of prednisolone ([2]; in vivo): about 10 fold
- systemic availability of the swallowed fraction ([2]; in vivo): 10.7±4.3%
- plasma clearance of the 2 enantiomers, children with asthma vs healthy adults ([2]; per kilogram of bodyweight, 6 children, 11 adults): about 50%

SMILES: COCCc1ccc(OCC(O)CNC(C)C)cc1 (stereo not shown) [metoprolol]
- clinical outcome in congestive heart failure (patients with CHF): significant mortality reduction
- airway hyperresponsiveness (Raw) (asthmatic mice [1]): effective in reducing airway hyperresponsiveness

SMILES: CC(C)NC[C@H](O)COc1cccc2ccccc12 [L-form of propranolol, propranolol]
- specific lung resistance [3]: increased specific lung resistance

SMILES: C=CCc1ccccc1OCC(O)CNC(C)C (stereo not shown) [alprenolol]
- BALF cellularity (asthmatic mice [4]; acute treatment (15 minutes)): significant increase in the number of macrophages
- BALF cellularity (asthmatic mice [4]; chronic treatment (28 days)): no changes in BALF cellularity were observed
- Decreased Raw (asthmatic mice [1]; 15 minutes of administration): yes
- Decreased Raw (asthmatic mice [1]; 2 days of administration): no
- Decreased Raw (asthmatic mice [1]; 28 days of administration): no
- airway responsiveness to methacholine provocation (Raw) (asthmatic mice [1]; [10]): airway responsiveness was diminished
- airway responsiveness to methacholine provocation (Raw) (asthmatic mice [1]; [11]): does not reduce airway hyperresponsiveness; also recorded: without any activity; also recorded: provides no benefit upon chronic administration
- methacholine doses at which Raw was significantly decreased vs non-treated (P<0.05) (asthmatic mice [1]; asthmatic mice, single intravenous bolus): ≥ 408 µg/kg/min
- effectiveness on tracheal contraction in response to methacholine (rank) [5]: The most effective compound
- Increased β2AR density (β2-adrenergic receptor [6]): no
- Bmax (β2-adrenergic receptor [7]): 299.5 ± 12.19 femtomoles of sites per milligram of protein
- βmax (β2-adrenergic receptor [7]): 179.2 ± 53.05 femtomoles of sites per milligram of protein
- Increased β2AR density (β2-adrenergic receptor [7]; 15 minutes of administration): yes
- Increased β2AR density (β2-adrenergic receptor [7]; 28 days of administration): no
- level of the β2-adrenergic receptor (β2-adrenergic receptor [7]): slight decrease

SMILES: OCc1cc(C(O)CNCCCCCCOCCCCc2ccccc2)ccc1O (stereo not shown) [salmeterol]
- trial outcome [8]: stopped due to increased death rates
- time for majority of a dose to be eliminated in the feces ([2]; in vivo): ≤ 72 h

SMILES: Cc1ccc(OCC(O)C(C)NC(C)C)c2c1CCC2 (stereo not shown) [ICI-118,551]
- effectiveness on tracheal contraction in response to methacholine (rank) [5]: then ICI-118,551

SMILES: CC(C)(C)NCC(O)c1ccc(O)c(CO)c1 (stereo not shown) [salbutamol]
- BALF cellularity (asthmatic mice [4]; acute treatment (15 minutes)): did not alter the cellular composition of BALF
- BALF cellularity (asthmatic mice [4]; chronic treatment (28 days)): significant increase in the number of eosinophils
- bioavailability of inhaled drug ([2]; 10 patients with cystic fibrosis vs healthy adults): greater than that in healthy adults
- Decreased Raw (asthmatic mice [1]; 15 minutes of administration): yes
- Decreased Raw (asthmatic mice [1]; 2 days of administration): no
- Decreased Raw (asthmatic mice [1]; 28 days of administration): no
- airway responsiveness to methacholine provocation (Raw) (asthmatic mice [1]; [10]): reduced the level of airway responsiveness to methacholine provocation and the level of airway resistance
- airway responsiveness to methacholine provocation (Raw) (asthmatic mice [1]; [11]): no protection was observed
- Increased β2AR density (β2-adrenergic receptor [6]): no
- Bmax (β2-adrenergic receptor [7]): 256.5 ± 29.24 femtomoles of sites per milligram of protein
- βmax (β2-adrenergic receptor [7]): 97.0 ± 23.02 femtomoles of sites per milligram of protein
- Increased β2AR density (β2-adrenergic receptor [7]; 15 minutes of administration): yes
- Increased β2AR density (β2-adrenergic receptor [7]; 28 days of administration): no
- level of the β2-adrenergic receptor (β2-adrenergic receptor [7]): slight decrease
- total number of immune cells in BALF (asthmatic mice [9]): statistically significant at P<0.05 total higher numbers of immune cells

SMILES: CC(C)NC[C@@H](O)COc1cccc2ccccc12 [D-propranolol]
- activity with respect to β-adrenergic receptors (β-adrenergic receptor): inactive
- antigen-induced bronchoconstriction and airway hyperresponsiveness [3]: beneficial in inhibiting antigen-induced bronchoconstriction and reducing airway hyperresponsiveness

SMILES: C[C@@H]1C[C@H]2[C@@H]3C[C@H](F)C4=CC(=O)C=C[C@]4(C)[C@@]3(F)[C@@H](O)C[C@]2(C)[C@@]1(O)C(=O)SCF [fluticasone]
- first-pass hepatic metabolism of systemically absorbed drug ([2]; in vivo): almost complete
